Source: patent US8936728B2, “Chemicals for oil spill cleanup” (priority 2010, dated 2015)

Tested on: fresh water minnows
Assay: Toxicity tests using fresh water minnows
Assay type: in vivo
Details: test water containing 25 ppm; control water without the phosphonium bromide
Method: Toxicity tests were conducted using fresh water minnows. The fresh water minnows were placed in test water containing 25 ppm dodecylbenzyldimethyl phosphonium bromide and in a control water sample without the phosphonium bromide.

In the case of `CCCCCCCCCCCC[P+](C)(C)Cc1ccccc1.[Br-]` [dodecylbenzyldimethyl phosphonium bromide], the “number of fresh water minnows dying over a given time in the test water versus control” value is reported as “about the same as in the control”.
